Here are results for one compound from US20110165094A1, “USE OF VITAMIN E OR DERIVATIVES THEREOF FOR THE CONTROL OF ARTHROPODS” (BIO.LO.GA S.R.L., priority 2008, published 2011).

The subject of this experiment is Pediculus capitis. The experiment is described as follows: Test 3: comparison of Example 1 formulation with 100% cyclomethicone spray, head louse mortality. It is filed as in vivo. The settings on record: after 24 hours. The protocol: A comparison test was also carried out between the formulation of Example 1, a compressed air spray similar to that described in Example 1, but containing 100% of cyclomethicone and a control composed of water.
Head lice were obtained from volunteer children using the same procedures outlined above for test 1.
The lice were distributed in groups of twenty onto squares of open mesh nylon gauze as a support substrate. Each group was placed on 90 millimetre plastic Petri dish.
Each square (4 cm^2) of gauze with the lice attached was then massaged with approx. 5 ml of the formulation to be tested. This was done on the dry gauze so that the formulations could be used neat. The formulations were then left exposed to the air for the specified exposure time.
After the lice had been exposed to the formulation to be tested for a given exposure time, water was added to the gauze, together with approx. 1 ml of shampoo and the gauze was massaged once more to produce a satisfactory foam. The gauze was then rinsed three times with 250 ml of warm tap water (34° C.) poured over and through the gauze squares. The gauze was then blotted dry with medical wipe tissue and incubated under normal maintenance conditions in clean plastic Petri dishes of appropriate dimensions until the results were recorded. […]

Structures are written as SMILES.

In the case of `CC(=O)Oc1c(C)c(C)c2c(c1C)CCC(C)(CCC[C@H](C)CCC[C@H](C)CCCC(C)C)O2` (stereo partly drawn) [vitamin E acetate, d,l-alpha-Tocopherol acetate], the “effect on the lice (inferred from Example 1 vs 100% cyclomethicone spray)” value is recorded as “significant effect”.
